Consider 22 compounds from patent publication US20200392158A1, “INHIBITORS OF LEUCINE RICH REPEAT KINASE 2” (GLAXOSMITHKLINE INTELLECTUAL PROPERTY DEVELOPMENT LIMITED, priority 2017, published 2020).

For orientation: IC50 means the concentration at which inhibition is half-maximal. The low end stands for greater potency in that assay, the high end for weaker potency in that assay.

SMILES strings stand for the structures.

In this assay the target is T1, full length G2019 human LRRK2 (Homo sapiens, UniProt Q5S007, R50H).
T1 construct: made in house; host or cells: HEK293 6E cells transduced with BacMam virus (virus generated in Sf9 cells)
T1 sequence (Q5S007 with tags, fused parts or gaps R50H): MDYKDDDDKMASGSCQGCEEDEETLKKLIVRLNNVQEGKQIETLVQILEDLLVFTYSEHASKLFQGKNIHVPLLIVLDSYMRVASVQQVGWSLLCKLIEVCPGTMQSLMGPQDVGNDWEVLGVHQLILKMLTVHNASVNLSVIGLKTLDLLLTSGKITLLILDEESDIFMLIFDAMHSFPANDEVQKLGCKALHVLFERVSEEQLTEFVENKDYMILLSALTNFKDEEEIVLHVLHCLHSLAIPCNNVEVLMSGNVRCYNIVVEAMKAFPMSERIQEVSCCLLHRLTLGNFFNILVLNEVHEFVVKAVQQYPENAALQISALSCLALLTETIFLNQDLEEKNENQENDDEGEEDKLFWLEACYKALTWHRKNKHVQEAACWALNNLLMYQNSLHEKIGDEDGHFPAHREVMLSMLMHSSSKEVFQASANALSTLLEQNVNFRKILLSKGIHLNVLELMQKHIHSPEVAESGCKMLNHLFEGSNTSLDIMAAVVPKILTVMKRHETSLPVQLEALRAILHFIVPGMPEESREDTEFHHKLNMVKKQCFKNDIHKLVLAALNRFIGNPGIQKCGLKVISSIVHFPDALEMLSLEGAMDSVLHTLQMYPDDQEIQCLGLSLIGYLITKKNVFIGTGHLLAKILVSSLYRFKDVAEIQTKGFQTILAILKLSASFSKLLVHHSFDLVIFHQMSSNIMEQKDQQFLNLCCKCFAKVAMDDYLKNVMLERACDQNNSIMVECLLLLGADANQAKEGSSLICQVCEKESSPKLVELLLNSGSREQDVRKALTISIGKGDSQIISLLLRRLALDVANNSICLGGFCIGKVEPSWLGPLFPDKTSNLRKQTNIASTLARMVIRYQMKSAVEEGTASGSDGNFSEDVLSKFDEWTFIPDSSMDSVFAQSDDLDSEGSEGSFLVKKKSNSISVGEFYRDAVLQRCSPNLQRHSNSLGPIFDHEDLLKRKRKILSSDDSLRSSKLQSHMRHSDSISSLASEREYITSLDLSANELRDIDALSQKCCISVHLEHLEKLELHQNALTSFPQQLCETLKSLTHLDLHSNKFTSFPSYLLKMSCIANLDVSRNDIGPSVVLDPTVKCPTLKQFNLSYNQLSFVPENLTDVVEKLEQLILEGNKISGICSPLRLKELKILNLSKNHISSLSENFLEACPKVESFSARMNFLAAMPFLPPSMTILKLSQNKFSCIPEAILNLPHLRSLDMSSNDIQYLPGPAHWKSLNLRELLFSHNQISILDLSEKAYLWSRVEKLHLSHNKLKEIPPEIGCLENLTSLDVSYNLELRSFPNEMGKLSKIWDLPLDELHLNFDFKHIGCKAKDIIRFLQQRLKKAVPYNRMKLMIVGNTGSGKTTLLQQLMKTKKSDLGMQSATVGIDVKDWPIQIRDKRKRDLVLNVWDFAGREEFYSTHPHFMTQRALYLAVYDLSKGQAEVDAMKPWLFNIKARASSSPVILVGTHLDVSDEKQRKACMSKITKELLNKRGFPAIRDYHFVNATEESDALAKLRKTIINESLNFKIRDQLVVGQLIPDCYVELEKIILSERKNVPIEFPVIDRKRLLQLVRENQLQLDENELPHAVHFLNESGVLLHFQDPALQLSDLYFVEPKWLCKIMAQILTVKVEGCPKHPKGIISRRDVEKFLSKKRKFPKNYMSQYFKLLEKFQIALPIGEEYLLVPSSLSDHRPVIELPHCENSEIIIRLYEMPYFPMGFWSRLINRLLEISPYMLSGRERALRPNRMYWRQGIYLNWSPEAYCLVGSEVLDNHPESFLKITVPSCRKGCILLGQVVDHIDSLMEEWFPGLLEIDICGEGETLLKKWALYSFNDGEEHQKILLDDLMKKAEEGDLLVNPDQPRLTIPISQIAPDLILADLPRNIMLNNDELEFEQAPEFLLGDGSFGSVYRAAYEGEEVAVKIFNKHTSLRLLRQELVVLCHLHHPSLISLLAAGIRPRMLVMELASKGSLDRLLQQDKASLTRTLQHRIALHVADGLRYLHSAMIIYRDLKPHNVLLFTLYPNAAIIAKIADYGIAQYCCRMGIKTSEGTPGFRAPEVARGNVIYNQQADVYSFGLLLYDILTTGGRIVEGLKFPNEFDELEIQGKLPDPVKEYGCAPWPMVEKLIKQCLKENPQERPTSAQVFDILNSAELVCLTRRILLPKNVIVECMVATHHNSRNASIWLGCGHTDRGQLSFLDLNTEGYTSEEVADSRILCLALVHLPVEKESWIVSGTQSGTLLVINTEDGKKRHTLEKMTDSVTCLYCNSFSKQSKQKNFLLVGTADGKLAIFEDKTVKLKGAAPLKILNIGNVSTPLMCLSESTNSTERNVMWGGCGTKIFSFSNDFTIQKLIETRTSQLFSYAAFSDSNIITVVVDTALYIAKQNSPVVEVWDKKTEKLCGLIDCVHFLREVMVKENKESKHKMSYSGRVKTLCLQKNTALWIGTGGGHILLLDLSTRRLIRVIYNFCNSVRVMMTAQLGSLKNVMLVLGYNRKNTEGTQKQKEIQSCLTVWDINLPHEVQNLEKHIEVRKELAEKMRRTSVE
Kind of assay: Full length G2019 human LRRK2 inhibition mass spectrometry assay. Format: biochemical. To be noted: LRRKtide to phospho-LRRKtide conversion, RapidFire MS, 2 mM ATP. How it is done:
a. Full Length G2019 Human LRRK2 Inhibition Mass Spectrometry Assay
This assay for Leucine Rich Repeat Kinase 2 (LRRK2) inhibition is based on the direct measurement of the peptide ‘LRRKtide’ (LRRKtide: RLGRDKYKT*LRQIRQ and “*” refers to the site of phosphorylation.) and phosphorylated ‘LRRKtide’ using a high throughput Rapid Fire mass spectrometry assay. Inhibitors are compounds that reduce the conversion of LRRKtide to phospho-LRRKtide.
• 1) Compounds were dissolved in 100% DMSO at a concentration of 10 mM, and 11-point dose response curves generated using a 1 in 4 serial dilution in DMSO. 100 nL of this dilution series was then added to a 384 well, v bottom polypropylene plate (Greiner 781280), excluding columns 6 and 18. 100 nL of DMSO were added to column 6 to serve as the high control, while column 18 served as the low control containing assay buffer in place of the LRRK2 protein. Assay dilution gave a top final assay concentration of test compound of […] • 2) 5 μL of ‘enzyme solution’ containing 2× final assay concentration of purified recombinant Full length Flag-LRRK2 in assay buffer (50 mM Hepes, pH 7.2, 10 mM MgCl2, 150 mM NaCl, 5% glycerol, 0.0025% Triton X-100 and 1 mM DTT) were added to all wells using a Multidrop Combi dispenser (ThermoFisher Scientifiec), giving a final assay concentration of 25 nM LRRK2 enzyme (final concentration may vary depending on specific activity of different enzyme batches). • 3) 5 μL of substrate solution containing 50 μM LRRKtide peptide substrate and […] was added to all wells of the plate using a Multidrop Combi dispenser giving a final assay concentration of 25 μM LRRKtide peptide and 2 mM ATP. Test plates were then incubated for 1 hour at room temperature. (Incubation may vary depending on rate and linearity of reaction with different enzyme batches). • 4) 50 μl of 1% formic acid in laboratory grade water was added to all wells to quench the reaction, and plates were heat-sealed prior to centrifugation at 1348×g for 10 minutes. Test plates were then analysed on an Agilent RapidFire High Throughput solid phase extraction system coupled to AB Sciex API 4000 triple quadropole mass spectrometer with the following setting:
• Sip Height=2 mm, Aspirate=500 ms, Load time=3000 ms, Elution time=3000 ms, Requilibration=500 ms. • Flow rates: pump 1=1.5 mL/min, pump 2 1.25 mL/min pump 3=0.8 mL/min
Mass Spectrometer Settings: • LRRKtide Detection settings: Q1 mass 644.8 Da, Q3 mass 638.8, declustering potential 76 volts, collision energy 37 volts, CXP 34 volts. • Phospho-LRRKtide Detection settings: Q1 mass 671.4 Da, Q3 mass 638.8, Declustering potential 76 volts, Collision energy 37 volts, CXP 34 volts. • A C4 cartridge was used and running buffers were: A (aqueous) 0.1% formic acid in water B (organic) 0.1% formic acid, 80% acetonitrile, 20% water. • Collision gas: 12, Curtain gas: 25, Ion Source gas (1): 60, Ion Source gas (2): 60, Ion Spray Voltage: 5500, Temperature: 600, Interface Heater: ON. • Resolution Q1: low, Resolution Q3: low. • 5) Data were analysed using ActivityBase software (IDBS). A percent conversion from LRRKtide to Phospho-LRRKtide was calculated using the following formula:
% conversion=(Phospho-LRRKtide product peak area/(Phospho-LRRKtide product peak area+LRRKtide substrate peak area))*100 • A logistic 4 parameter curve fit was applied, using the following formula,
[formula] • Where x is the concentration of test sample, y is inhibition (%), a is the minimum, b is the Hill slope, c is the IC50 and d is the maximum. From this, the pIC50 was derived (−log IC50).

In turn, `Cc1c2c(nn1CC(C)(C)O)OCCC(C)Nc1nc(ncc1Cl)N2` (single isomer, unassigned) [E264, 1-{14-Chloro-4,11-dimethyl-8-oxa-2,5,6,12,16,17-hexaazatricyclo[11.3.1.0^3,7]heptadeca-1(17),3,6,13,15-pentaen-5-yl}-2-methylpropan-2-ol] showed an IC50 of no more than 10 µM.
Then `Cc1c2c(nn1C1CCC(N3C[C@H]4C[C@@H]3CO4)CC1)OCCC(C)Nc1nc(ncc1Cl)N2` (single isomer, unassigned) [E58], with no more than 0.1 µM.
Then `Cc1c2c(nn1C1CCC(C(F)(F)F)CC1)OCCC(C)Nc1nc(ncc1Cl)N2` (single isomer, unassigned) [E280, 4-Chloro-4,11-dimethyl-5-[4-(trifluoromethyl)cyclohexyl]-8-oxa-2,5,6,12,16,17-hexaazatricyclo[11.3.1.0^3,7] heptadeca-1(16),3,6,13(17),14-pentaene], with no more than 10 µM; and `Cc1c2c(nn1C1CCC(C)CC1)OCCCNc1nc(ncc1Cl)N2` (single isomer, unassigned) [E258, 14-Chloro-4-methyl-5-(4-methylcyclohexyl)-8-oxa-2,5,6,12,16,17-hexaazatricyclo[11.3.1.0^3,7]heptadeca-1(16),3,6,13 (17),14-pentaene], with no more than 0.1 µM; and `Cc1c2c(nn1C1CCOCC1)OCC(F)C(C)Nc1nc(ncc1Cl)N2` (single isomer, unassigned) [E63, 14-Chloro-10-fluoro-4,11-dimethyl-5-(oxan-4-yl)-8-oxa-2,5,6,12, 16,17-hexaazatricyclo[11.3.1.0^3,7]heptadeca-1(16),3,6,13(17),14-pentaene], with no more than 10 µM.
In turn, `COC1CCCC(n2nc3c(c2C)Nc2ncc(Cl)c(n2)NCCCO3)C1` (single isomer, unassigned) [E181, 14-Chloro-5-(3-methoxycyclohexyl)-4-methyl-8-oxa-2,5,6,12,16,17-hexaazatricyclo[11.3.1.0^3,7]heptadeca-1(16),3,6,13(17),14-pentaene] showed an IC50 of 100 µM.
Then `N#Cc1cnc2nc1NCCCOc1n[nH]c(Cl)c1N2` [E426, 4-Chloro-8-oxa-2,5,6,12,16,17-hexaazatricyclo[11.3.1.0^3,7]heptadeca-1(16),3,6,13(17),14-pentaene-14-carbonitrile], with no more than 10 µM; and `Cc1c2c(nn1C(C)C1CCOCC1)OCCC(C)Nc1nc(ncc1Cl)N2` (single isomer, unassigned) [E182, 14-Chloro-4,11-dimethyl-5-[1-(oxan-4-yl)ethyl]-8-oxa-2,5,6,12,16,17-hexaazatricyclo[11.3.1.0^3,7]heptadeca-1(16),3,6,13(17),14-pentaene], with no more than 10 µM; and `Cc1c2c(nn1C1CN(C3COC3)CCC1F)OCC[C@@H](C)Nc1nc(ncc1Cl)N2` (single isomer, unassigned) [E404], with no more than 0.1 µM.
Then `Cc1c2c(nn1C1CCC(C)CC1)OCCC(C)Nc1nc(ncc1Cl)N2` (single isomer, unassigned) [E260, 14-Chloro-4,11-dimethyl-5-(4-methylcyclohexyl)-8-oxa-2,5,6,12,16,17-hexaazatricyclo[11.3.1.0^3,7] heptadeca-1(16),3,6,13(17),14-pentaene], with no more than 0.1 µM; and `Cc1c2c(nn1C(C)(C)C#N)OCCC(C)Nc1nc(ncc1Cl)N2` (single isomer, unassigned) [E43, 2-{14-chloro-4,11-dimethyl-8-oxa-2,5,6,12,16,17-hexaazatricyclo [11.3.1.0^3,7]heptadeca-1(16),3,6,13(17),14-pentaen-5-yl}-2-methylpropanenitrile], with no more than 10 µM.
For `COC1CNc2nc(ncc2Cl)Nc2c(nn(C3CC(C)OC(C)C3)c2C)OC1` (single isomer, unassigned) [E199, 14-Chloro-5-(2,6-dimethyloxan-4-yl)-10-methoxy-4-methyl-8-oxa-2,5,6,12,16,17-hexaazatricyclo[11.3.1.0^3,7] heptadeca-1(16),3,6,13(17),14-pentaene], the IC50 is no more than 10 µM.
Then `Cc1c2c(nn1C1CC3CCC(C1)O3)OCCCNc1nc(ncc1Cl)N2` (single isomer, unassigned) [E244, 14-Chloro-4-methyl-5-{8-oxabicyclo[3.2.1]octan-3-yl}-8-oxa-2,5,6,12,16,17-hexaazatricyclo[11.3.1.0^3,7] heptadeca-1(16),3,6,13(17),14-pentaene], with no more than 0.1 µM.
Then `Cc1c2c(nn1C1CCOCC1)OCCC(C1CC1)Nc1nc(ncc1Cl)N2` (single isomer, unassigned) [E292, 14-Chloro-11-cyclopropyl-4-methyl-5-(oxan-4-yl)-8-oxa-2,5,6,12,16,17-hexaazatricyclo[11.3.1.0^3,7]heptadeca-1(16),3,6,13(17),14-pentaene], with no more than 10 µM; and `Cc1c2c(nn1C1COCCC1(F)F)OCC[C@@H](C)Nc1nc(ncc1Cl)N2` (single isomer, unassigned) [E304], with no more than 0.1 µM; and `COC1CCCC(n2nc3c(c2C)Nc2ncc(Cl)c(n2)NCCCO3)C1` (single isomer, unassigned) [E180, 14-Chloro-5-(3-methoxycyclohexyl)-4-methyl-8-oxa-2,5,6,12,16,17-hexaazatricyclo[11.3.1.0^3,7]heptadeca-1(16),3,6,13(17),14-pentaene], with no more than 0.1 µM.
With `COC1CNc2nc(ncc2Cl)Nc2c(nn(C3COC3)c2C)OC1` (single isomer, unassigned) [E271, 14-Chloro-10-methoxy-4-methyl-5-(oxetan-3-yl)-8-oxa-2,5,6,12,16,17-hexaazatricyclo[11.3.1.0^3,7]heptadeca-1(16),3,6,13(17),14-pentaene], the half-inhibitory concentration (IC50) is no more than 10 µM.
Then `Cc1c2c(nn1C(C)C1CCOCC1)OCCCNc1nc(ncc1Cl)N2` (single isomer, unassigned) [E187, 14-Chloro-4-methyl-5-[1-(oxan-4-yl)ethyl]-8-oxa-2,5,6,12,16,17-hexaazatricyclo[11.3.1.0^3,7]heptadeca-1(16), 3,6,13(17),14-pentaene], with no more than 0.1 µM.
Then `Cc1c2c(nn1C1CC(C)OC(C)C1)OCCC(C)Nc1nc(ncc1Cl)N2` (single isomer, unassigned) [E195, 14-Chloro-5-(2,6-dimethyloxan-4-yl)-4,11-dimethyl-8-oxa-2,5,6,12,16,17-hexaazatricyclo[11.3.1.0^3,7] heptadeca-1(16),3,6,13(17),14-pentaene], with no more than 0.1 µM; and `Cc1c2c(nn1C1CCN(C3COC3)CC1(F)F)OCCCNc1nc(ncc1Cl)N2` (single isomer, unassigned) [E405, 14-Chloro-5-[3,3-difluoro-1-(oxetan-3-yl)piperidin-4-yl]-4-methyl-8-oxa-2,5,6,12,16,17-hexaazatricyclo[11.3.1.0^3,7]heptadeca-1(16),3,6,13(17),14-pentaene], with no more than 0.1 µM.
Then `Cc1c2c(nn1C1CC3CCC(C1)O3)OCCC(C)Nc1nc(ncc1Cl)N2` (single isomer, unassigned) [E250, 14-Chloro-4,11-dimethyl-5-{8-oxabicyclo[3.2.1]octan-3-yl}-8-oxa-2,5,6,12,16,17-hexaazatricyclo[11.3.1.0^3,7] heptadeca-1(16),3,6,13(17),14-pentaene], with no more than 10 µM; and `Cc1c2c(nn1C1CCCOC1)OCC(C)CNc1nc(ncc1Cl)N2` (single isomer, unassigned) [E308, 14-Chloro-4,10-dimethyl-5-(oxan-3-yl)-8-oxa-2,5,6,12,16,17-hexaazatricyclo[11.3.1.0^3,7]heptadeca-1(16),3,6, 13(17),14-pentaene], with no more than 0.1 µM.
